Measurements published in ChEMBL document CHEMBL4373746, “Structural attributes influencing unbound tissue distribution” (Eur J Med Chem, 2020).

Key:
[1] = Fraction unbound in Wistar Han rat plasma at 2 uM incubated for 6 hrs by equilibrium dialysis method
[2] = Fraction unbound in Wistar Han rat white adipose tissue at 2 uM incubated for 6 hrs by equilibrium dialysis method
[3] = Fraction unbound in Wistar Han rat brain at 2 uM incubated for 6 hrs by equilibrium dialysis method
[4] = Fraction unbound in Wistar Han rat heart at 2 uM incubated for 6 hrs by equilibrium dialysis method
[5] = Fraction unbound in Wistar Han rat liver at 2 uM incubated for 6 hrs by equilibrium dialysis method
[6] = Fraction unbound in Wistar Han rat skeletal muscle at 2 uM incubated for 6 hrs by equilibrium dialysis method
[7] = Total plasma concentration in Wistar Han rat at 1 to 2 mg/kg, iv infused for 10 to 20 hrs by LC-MS/MS analysis; conditions: in vivo
[8] = Drug concentration in total white adipose tissue in Wistar Han rat at 1 to 2 mg/kg, iv infused for 10 to 20 hrs by LC-MS/MS analysis; conditions: in vivo
[9] = Drug concentration in total brain in Wistar Han rat at 1 to 2 mg/kg, iv infused for 10 to 20 hrs by LC-MS/MS analysis; conditions: in vivo
[10] = Drug concentration in total heart in Wistar Han rat at 1 to 2 mg/kg, iv infused for 10 to 20 hrs by LC-MS/MS analysis; conditions: in vivo
[11] = Drug concentration in total liver in Wistar Han rat at 1 to 2 mg/kg, iv infused for 10 to 20 hrs by LC-MS/MS analysis; conditions: in vivo
[12] = Drug concentration in total skeletal muscle in Wistar Han rat at 1 to 2 mg/kg, iv infused for 10 to 20 hrs by LC-MS/MS analysis; conditions: in vivo
[13] = Unbound tissue partition coefficient, ratio of drug level in heart to plasma in Wistar Han rat at 1 to 2 mg/kg, iv infused for 10 to 20 hrs by LC-MS/MS analysis; conditions: heart/plasma
[14] = Unbound tissue partition coefficient, ratio of drug level in brain to plasma in Wistar Han rat at 1 to 2 mg/kg, iv infused for 10 to 20 hrs by LC-MS/MS analysis; conditions: brain/plasma
[15] = Unbound tissue partition coefficient, ratio of drug level in adipose to plasma in Wistar Han rat at 1 to 2 mg/kg, iv infused for 10 to 20 hrs by LC-MS/MS analysis; conditions: adipose/plasma
[16] = Unbound tissue partition coefficient, ratio of drug level in liver to plasma in Wistar Han rat at 1 to 2 mg/kg, iv infused for 10 to 20 hrs by LC-MS/MS analysis; conditions: liver/plasma
[17] = Unbound tissue partition coefficient, ratio of drug level in skeletal muscle to plasma in Wistar Han rat at 1 to 2 mg/kg, iv infused for 10 to 20 hrs by LC-MS/MS analysis; conditions: skeletal muscle/plasma
[18] = Apparent permeability of the compound across dog RRCK cells by MDCK-LE assay

Structure (SMILES) | fraction unbound at 6 h, 2 µM [1] | fraction unbound at 6 h, 2 µM [2] | fraction unbound at 6 h, 2 µM [3] | fraction unbound at 6 h, 2 µM [4] | fraction unbound at 6 h, 2 µM [5] | fraction unbound at 6 h, 2 µM [6] | Cp [7] [µg/mL] | Ct [8] [ng/mL] | Ct [9] [ng/mL] | Ct [10] [ng/mL] | Ct [11] [ng/mL] | Ct [12] [ng/mL] | Kp uu [13] | Kp uu [14] | Kp uu [15] | Kp uu [16] | Kp uu [17] | Papp [18] [nm/s]
COc1ccc(Cc2cc([C@@H]3OC4(COC4)[C@@H](O)[C@H](O)[C@H]3O)ccc2C)cc1 | 0.212 | 0.132 | 0.0553 | 0.076 | 0.125 | 0.114 | 0.081 | 20 | 15 | 260 | 360 | 110 | 1.2 | 0.048 | 0.16 | 2.7 | 0.71 | 58
CC(C)(CC1Cc2ccccc2C1)NC[C@@H](O)COc1cc(C2CC3CC2C2C(C(=O)O)C32)ccc1C#N (some centres undefined) | 0.0104 | 0.0322 | 0.00176 | 0.00108 | 0.00258 | 0.00211 | 0.054 | 4.7 | 1 | 86 | 400 | 16 | 0.19 | 0.0025 | 0.36 | 2.2 | 0.08 | 53
CN(C)C[C@@H](OC(=O)N1Cc2c(NC(=O)C3(C(F)(F)F)CC3)n[nH]c2C1(C)C)c1ccccc1 | 0.362 | 0.205 | 0.0543 | 0.0941 | 0.0749 | 0.138 | 0.028 | 79 | 2.3 | 190 | 420 | 97 | 1.8 | 0.013 | 1.6 | 3.3 | 1.4 | 150
CCCC(Oc1ccc(-n2cc3ccccc3n2)cc1)c1ccc(C(=O)NCCC(=O)O)cc1 (centres undefined) | 0.0034 | 0.105 | 0.00341 | 0.00543 | 0.00607 | 0.00584 | 0.068 | 0.77 | 1.9 | 80 | 420 | 12 | 1.8 | 0.018 | 0.024 | 14 | 0.38 | 99
COc1ccc(-c2cc3c(C(=O)O)n[nH]c3cc2Cl)cc1 | 0.00439 | 0.334 | 0.0135 | 0.0256 | 0.0193 | 0.0398 | 0.096 | 1 | 0.6 | 29 | 140 | 1.9 | 1.8 | 0.017 | 1.2 | 6.5 | 0.15 | 88
COc1ccc(-c2cc3c(S(=O)(=O)O)c[nH]c3cc2Cl)cc1 | 0.00473 | 0.347 | 0.0414 | 0.0523 | 0.0303 | 0.0546 | 0.33 | 15 | 4.2 | 82 | 380 | 16 | 2.9 | 0.13 | 3.8 | 8.7 | 0.6 | 23
O=C(O)c1c[nH]c2cc(Cl)c(-c3ccc(CC(=O)N4CCOCC4)cc3)cc12 | 0.00645 | 0.386 | 0.181 | 0.0746 | 0.0789 | 0.133 | 0.072 | 2 | 0.38 | 21 | 210 | 0.89 | 3.4 | 0.0018 | 1.6 | 40 | 0.16 | 24
O=C(c1cccc(N2CCNCC2)n1)N1CCC(c2ccccc2F)CC1 | 0.0995 | 0.393 | 0.0227 | 0.057 | 0.0394 | 0.0483 | 0.042 | 28 | 14 | 410 | 960 | 170 | 5.3 | 0.078 | 2.4 | 9.4 | 2 | 240
C[C@H]1C[C@H]2CSC(N)=N[C@@]2(c2cc(C#N)ccc2F)CO1 | 0.796 | 1 | 0.573 | 0.668 | 0.548 | 0.344 | 0.084 | 86 | 230 | 380 | 990 | 240 | 3.9 | 2.1 | 1.4 | 8.5 | 1.3 | 290
O=C(NC1CC1)c1nc2cccnn2c1-c1ccc2ncnn2c1 | 0.511 | 0.709 | 0.886 | 0.746 | 0.439 | 0.304 | 0.05 | 29 | 68 | 140 | 210 | 100 | 4 | 2.5 | 0.95 | 3.9 | 1.3 | 270
N#Cc1ccc(N2N=C(N3CCC(C(=O)N4CCC(O)CC4)CC3)C[C@H]2C2CCCC2)cc1Cl | 0.00962 | 0.109 | 0.00431 | 0.00283 | 0.00991 | 0.00952 | 0.24 | 120 | 16 | 550 | 1000 | 150 | 0.68 | 0.029 | 5.9 | 4.3 | 0.59 | 200
O=C(O)[C@@H]1CCCN(C(=O)n2cnc(-c3ccc(-c4cnc(N5CCOCC5)nc4)cc3)n2)[C@H]1c1ccccc1 | 0.00273 | 0.089 | 0.00251 | 0.00542 | 0.00643 | 0.00554 | 0.12 | 8 | 1.5 | 59 | 860 | 18 | 1.1 | 0.0089 | 2.5 | 18 | 0.3 | 79
COCCCN1C[C@H](C)N(C(=O)N2Cc3c(NC(=O)c4ccccn4)n[nH]c3C2(C)C)C[C@H]1C | 0.614 | 0.329 | 0.0796 | 0.341 | 0.375 | 0.385 | 0.03 | 27 | 3.4 | 110 | 170 | 68 | 2.2 | 0.015 | 0.51 | 3.8 | 1.5 | 210
